PubChem BioAssay AID2060504 (Molecular Pharmacology Branch, DTP, NCI, 2025)

Test system: 636577-100-R-J1-PDC complex spheroid viability
Test: Anticancer human tumor 636577-100-R-J1-PDC patient-derived endometrial adenocarcinoma cell line growth inhibition [GQUAD]
Details: for IC50: curve of first compound; for viability, T/C: stronger effect = lower value
Outline: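 Tumor cells were grown as complex spheroids with HUVEC endothelial cells and mesenchymal stem cells as stroma. G-quadruplex stabilizers were combined with targeted agents over half-log dilutions from near the clinical Cmax, or from 10 microM.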

[1] = second compound 0.0316 µM, first compound 0.0316 µM
[2] = second compound 0.0316 µM, first compound 0.316 µM
[3] = second compound 0.1 µM, first compound 0.0316 µM
[4] = second compound 0.1 µM, first compound 0.316 µM
[5] = second compound 0.316 µM, first compound 0.0316 µM
[6] = second compound 0.316 µM, first compound 0.316 µM
[7] = second compound 1 µM, first compound 0.0316 µM
[8] = second compound 1 µM, first compound 0.316 µM
[9] = second compound 3.16 µM, first compound 0.0316 µM
[10] = second compound 3.16 µM, first compound 0.316 µM
[11] = second compound 10 µM, first compound 0.0316 µM
[12] = second compound 10 µM, first compound 0.316 µM
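Further: viability read after seven days of drug exposure.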
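Wherever viability, T/C is given: luminescence signal used as a proxy for viable cells; 100% = DMSO vehicle control wells.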

C=CC(=O)N1CCN(c2nc(=O)n(-c3c(C)ccnc3C(C)C)c3nc(-c4c(O)cccc4F)c(F)cc23)C(C)C1 (centres undefined) + CN(C)c1ccc(Nc2c3ccc(NC(=O)CCN4CCCC4)cc3nc3cc(NC(=O)CCN4CCCC4)ccc23)cc1
IC50 (second compound 0.0316 µM): > 10000 nM
IC50 (second compound 0.1 µM): > 10000 nM
IC50 (second compound 0.316 µM): > 10000 nM
IC50 (second compound 1 µM): > 10000 nM
IC50 (second compound 3.16 µM): < 31.6 nM
IC50 (second compound 10 µM): < 31.6 nM
viability, T/C [1]: 82.5%
viability, T/C (second compound 0.0316 µM, first compound 0.1 µM): 60.8%
viability, T/C [2]: 114%
viability, T/C (second compound 0.0316 µM, first compound 1 µM): 75.2%
viability, T/C (second compound 0.0316 µM, first compound 3.16 µM): 91.9%
viability, T/C (second compound 0.0316 µM, first compound 10 µM): 64.8%
viability, T/C [3]: 73.5%
viability, T/C (second compound 0.1 µM, first compound 0.1 µM): 67.1%
viability, T/C [4]: 78.9%
viability, T/C (second compound 0.1 µM, first compound 1 µM): 73%
viability, T/C (second compound 0.1 µM, first compound 3.16 µM): 108%
viability, T/C (second compound 0.1 µM, first compound 10 µM): 75.6%
viability, T/C [5]: 79.5%
viability, T/C (second compound 0.316 µM, first compound 0.1 µM): 63.9%
viability, T/C [6]: 88%
viability, T/C (second compound 0.316 µM, first compound 1 µM): 81.2%
viability, T/C (second compound 0.316 µM, first compound 3.16 µM): 97.5%
viability, T/C (second compound 0.316 µM, first compound 10 µM): 67.4%
viability, T/C [7]: 85.9%
viability, T/C (second compound 1 µM, first compound 0.1 µM): 54.3%
viability, T/C [8]: 76.3%
viability, T/C (second compound 1 µM, first compound 1 µM): 96.9%
viability, T/C (second compound 1 µM, first compound 3.16 µM): 94.5%
viability, T/C (second compound 1 µM, first compound 10 µM): 60.3%
viability, T/C [9]: 42%
viability, T/C (second compound 3.16 µM, first compound 0.1 µM): 43.9%
viability, T/C [10]: 35.4%
viability, T/C (second compound 3.16 µM, first compound 1 µM): 53.6%
viability, T/C (second compound 3.16 µM, first compound 3.16 µM): 43.7%
viability, T/C (second compound 3.16 µM, first compound 10 µM): 28.9%
viability, T/C [11]: 6.52%
viability, T/C (second compound 10 µM, first compound 0.1 µM): 5.91%
viability, T/C [12]: 6.86%
viability, T/C (second compound 10 µM, first compound 1 µM): 6.43%
viability, T/C (second compound 10 µM, first compound 3.16 µM): 3.58%
viability, T/C (second compound 10 µM, first compound 10 µM): 0.96%

CC[C@@]1(O)C(=O)OCc2c1cc1n(c2=O)Cc2cc3c(CN(C)C)c(O)ccc3nc2-1 + CN(C)c1ccc(Nc2c3ccc(NC(=O)CCN4CCCC4)cc3nc3cc(NC(=O)CCN4CCCC4)ccc23)cc1
IC50 (second compound 0.0316 µM): 18.5 nM
IC50 (second compound 0.1 µM): 18.6 nM
IC50 (second compound 0.316 µM): 18.7 nM
IC50 (second compound 1 µM): 11.8 nM
IC50 (second compound 3.16 µM): < 0.999 nM
IC50 (second compound 10 µM): < 0.999 nM
viability, T/C (second compound 0.0316 µM, first compound 0.000999 µM): 108%
viability, T/C (second compound 0.0316 µM, first compound 0.00316 µM): 75.3%
viability, T/C (second compound 0.0316 µM, first compound 0.00999 µM): 72.1%
viability, T/C [1]: 37.2%
viability, T/C (second compound 0.0316 µM, first compound 0.0999 µM): 21.1%
viability, T/C [2]: 27.1%
viability, T/C (second compound 0.1 µM, first compound 0.000999 µM): 88.6%
viability, T/C (second compound 0.1 µM, first compound 0.00316 µM): 74.7%
viability, T/C (second compound 0.1 µM, first compound 0.00999 µM): 74.2%
viability, T/C [3]: 29.5%
viability, T/C (second compound 0.1 µM, first compound 0.0999 µM): 22.3%
viability, T/C [4]: 23.6%
viability, T/C (second compound 0.316 µM, first compound 0.000999 µM): 77.8%
viability, T/C (second compound 0.316 µM, first compound 0.00316 µM): 65.9%
viability, T/C (second compound 0.316 µM, first compound 0.00999 µM): 62.7%
viability, T/C [5]: 41.5%
viability, T/C (second compound 0.316 µM, first compound 0.0999 µM): 22%
viability, T/C [6]: 23.9%
viability, T/C (second compound 1 µM, first compound 0.000999 µM): 64.3%
viability, T/C (second compound 1 µM, first compound 0.00316 µM): 96.1%
viability, T/C (second compound 1 µM, first compound 0.00999 µM): 54%
viability, T/C [7]: 30.4%
viability, T/C (second compound 1 µM, first compound 0.0999 µM): 24.4%
viability, T/C [8]: 22.7%
viability, T/C (second compound 3.16 µM, first compound 0.000999 µM): 34.8%
viability, T/C (second compound 3.16 µM, first compound 0.00316 µM): 45.4%
viability, T/C (second compound 3.16 µM, first compound 0.00999 µM): 37.6%
viability, T/C [9]: 26.2%
viability, T/C (second compound 3.16 µM, first compound 0.0999 µM): 21.2%
viability, T/C [10]: 20%
viability, T/C (second compound 10 µM, first compound 0.000999 µM): 6.05%
viability, T/C (second compound 10 µM, first compound 0.00316 µM): 6.87%
viability, T/C (second compound 10 µM, first compound 0.00999 µM): 5.66%
viability, T/C [11]: 4.71%
viability, T/C (second compound 10 µM, first compound 0.0999 µM): 5.96%
viability, T/C [12]: 4.24%
